Assay: Human HepG2 cell viability assay in 384 well format
Assay type: toxicity, cell-based
Design: dose 125 nL, time 70.5 hour; concentration not given beside the values
Conditions: HepG2 cells, read-out: Inhibition

Row | Compound | cytotoxicity at 70.5 h
1 | Cc1noc(C)c1CN1C[C@@H]2COC[C@]2(COc2ccc(C#N)cn2)C1 | -2.55%
2 | COC[C@@]12CCO[C@@H]1CCN(C(=O)Cc1ccccc1C)C2 | -3.36%
3 | COC[C@@]12CCO[C@@H]1CCN(C(=O)CCc1ccccc1Cl)C2 | -3.89%
4 | Cc1nn(Cn2ccc(C(=O)N3CCC(C)CC3)n2)c(C)c1Cl | -13.2%
5 | CC(C(=O)O)n1nc(C(F)(F)F)c(Cl)c1C1CC1 (configuration not stated) | 5.37%
6 | Cc1ccc(OCc2ccc(C(=O)O)s2)cc1C | -6.36%
7 | CCn1cc(Cn2cc(Cl)c(N)n2)c(C)n1 | -2.35%
8 | COc1cc(C(F)(F)F)sc1C(=O)O | -6.37%
9 | O=C(O)Cn1nc(C2CC2)c2c(-c3cccs3)ccnc21 | 25.1%
10 | CCNC(=O)Cc1n[nH]c(-c2cncc(Br)c2)n1 | 32%
11 | CCC(=O)Nc1c(C)nn(COc2cccc(F)c2)c1C | -2.04%
12 | CCS(=O)(=O)Nc1cnn(Cc2cccc(Cl)c2)c1 | -10.7%
13 | CCn1cc(CN(C)S(=O)(=O)c2ccc(C(C)C)cc2)cn1 | -6.2%
14 | CCCNC(=O)c1nn(CC)cc1Cl | -3.27%
15 | CSc1ccc(CNc2n[nH]c(C)n2)cc1 | 44.9%
16 | Cn1nnc(NCc2ccc(-c3ccc(Br)cc3)o2)n1 | -9.29%
17 | CCn1nnc(NCc2ccc(-c3ccc(Br)cc3)o2)n1 | -7.12%
18 | CCCn1nnc(NCc2cc(Br)cc(Br)c2OC)n1 | -9.35%
19 | C=C/C=c1\c(=C/C)oc2c(NCc3ccccc3)ncnc12 | 10.6%
20 | CCOCCCNc1cc(C)nn2cnnc12 | 7.54%
21 | C=C/C=c1\c(=C/C)oc2c(NCc3ccccc3)nc(C)nc12 | 13.2%
22 | CN1CCc2c1nc1c(c2N)CCC1 | -7.38%
23 | O=C(O)Cn1ccc2c(Cl)cccc21 | -1.23%
24 | Cc1ccc(NC(=O)c2n[nH]c(-n3cnnc3)n2)cc1 | -8.15%

Row | Compound | cytotoxicity at 70.5 h
25 | Cc1c2ncn(CC(=O)NC(C)C)c(=O)c2nn1C | 3.83%
26 | O=c1c2cc3c(cc2nnn1Cc1cccc(F)c1)OCCO3 | -9.5%
27 | Cc1ccccc1Cn1nnc2cc3c(cc2c1=O)OCCO3 | -9.38%
28 | CCn1nc(C)c(NC(=O)C(C)C)c1C | -2.76%
29 | Cc1nn(C)c2c(=O)n(Cc3ccccc3)nnc12 | -13.5%
30 | Cc1nn(C)c2c(NCc3ccccn3)ncnc12 | -2.17%
31 | Cc1nc(NC2CC2)c2c(n1)c(C)nn2C | -18.4%
32 | Cc1nc(NCc2ccccn2)c2c(n1)c(C)nn2C | 5.97%
33 | COc1ccc(Nc2nc3c(C)nn(C)c3c(=O)n2C)cc1 | 29.7%
34 | COc1ccc(C)cc1Nc1nc2c(C)nn(C)c2c(=O)n1C | -5.48%
35 | COc1ccc(C(C)Nc2nc3c(C)nn(C)c3c(=O)n2C)cc1 (configuration not stated) | -3.89%
36 | CCn1c(NCC2CCCO2)nc2c(C)nn(C)c2c1=O (configuration not stated) | -7.98%
37 | CCCn1c(N2CCCC2)nc2c(C)nn(C)c2c1=O | -6.89%
38 | CCCn1c(NCCc2ccccc2)nc2c(C)nn(C)c2c1=O | 11.6%
39 | Cc1c2ncn(CC(=O)c3ccccc3)c(=O)c2nn1C | -3.76%
40 | CNc1[nH]nc(N)c1NC(=O)c1ccccc1 | -17.7%
41 | CCn1nc(CNC(C)(C)CO)c(-c2ccccc2)n1 | -1.62%
42 | O=C(Nc1ccccc1)c1n[nH]c(-n2cnnc2)n1 | -2.23%
43 | CCCN(c1ccccc1C(=O)O)S(=O)(=O)c1ccc2ccccc2c1 | -6.16%
44 | CS(=O)(=O)Nc1ccn(Cc2cccc(F)c2)n1 | -6.83%
45 | CCn1c(SCC(N)=O)nnc1-c1csc2c1CCCC2 | 2.39%
46 | CCS(=O)(=O)Nc1ccn(Cc2c(F)cccc2Cl)n1 | -9.46%
47 | O=S(=O)(c1ccc(F)c(F)c1)n1cc(Cl)cn1 | -6.91%
48 | Cc1sc(NC(=O)CCC(=O)O)c(C(N)=O)c1-c1ccc(Cl)cc1Cl | -1.16%

Row | Compound | cytotoxicity at 70.5 h
49 | CCCNC(=O)NC(C)c1ccccn1 (configuration not stated) | -11.1%
50 | CS(=O)(=O)Nc1ccn(Cc2ccc(Br)cc2)n1 | -8.91%
51 | CCCN1CCC(NC(=O)c2csc(C)c2-c2ccc(C)cc2)CC1 | -0.127%
52 | Cc1cccc(-n2nnnc2C2(NCc3ccco3)CCCCC2)c1 | -3.38%
53 | Cc1nc(N2CCCC2)ncc1-c1cc(O)nc(N2CCOCC2)n1 | -4.64%
54 | COc1cc2cc(C(=O)NCC(=O)O)n(C)c2c(OC)c1OC | 31.9%
55 | CC(=O)N1CCN([C@@H]2CN(C(=O)c3ccccc3)C[C@H]2O)CC1 | -5.08%
56 | CC(=O)N1CCN([C@@H]2CN(C(=O)c3ccccc3C)C[C@H]2O)CC1 | -3.99%
57 | Cc1ccc(Nc2nccc(C3CCN(C(=O)CO)C3)n2)nc1 (configuration not stated) | -11.2%
58 | CNc1cc(C2CCCN(C(=O)c3ccc(=O)[nH]n3)C2)ccn1 (configuration not stated) | -0.0309%
59 | CC(=O)N1CCC(Cc2cnc(-c3c(C)nn(C)c3C)cn2)CC1 | -0.949%
60 | CN(C)S(=O)(=O)N1CCC(C)(c2ncc(C(N)=O)s2)CC1 | -5.66%
61 | c1ccc(CCN2CCCC2c2ccnc(Nc3cnccn3)n2)cc1 (configuration not stated) | -3.41%
62 | Cc1cc(O)nc(C2CCCN(CCO)C2)n1 (configuration not stated) | -1.84%
63 | c1cc(-c2cnc(C3CCNCC3)cn2)n[nH]1 | 12.8%
64 | Cc1cc(C)nc(N2CCOC(C)(C(=O)N(C)C)C2)n1 (configuration not stated) | -4.59%
65 | Cc1c(CN2CCCC2(C)C(=O)N2CCOCC2)cnn1C (configuration not stated) | -7.03%
66 | Cc1nccc(C2CN(C(=O)c3cncnc3)C2)n1 | -13.8%
67 | Cc1cnc(N2CCOC(C(=O)NCc3ccccc3)C2)s1 (configuration not stated) | -15.2%
68 | CCn1ccc2ccnc(CC3CN(C(=O)c4cnco4)C3)c21 | -6.85%
69 | COCC(=O)NC[C@H]1CC[C@H](c2nnc(-c3cccnc3)o2)CC1 | -7.6%
70 | Cc1ccc(C2CN(Cc3cccc4[nH]ccc34)CCO2)nc1 (configuration not stated) | 46%
71 | Cc1ccn(CCNC(=O)C2CCN(S(=O)(=O)c3ccc(F)cc3)C2)n1 (configuration not stated) | 8.09%
72 | CC1(C(=O)NC2CCCC2)CCCN(c2ncccn2)C1 (configuration not stated) | 6.47%

Row | Compound | cytotoxicity at 70.5 h
73 | CNc1nc(C2CCN(C(=O)CC3CCCC3)C2)nc2c1CN(C)CC2 (configuration not stated) | 8.17%
74 | CCN1CCCC(O)(c2nc(C)c(CCOc3ccccc3Cl)s2)CC1 (configuration not stated) | -7.73%
75 | CC(=O)N1CCc2nnc(C3CCCCN3CC3CC3)n2CC1 (configuration not stated) | -13%
76 | Cc1noc(C)c1-c1ccnc(C2CCN(S(=O)(=O)N(C)C)CC2)c1 | -2.76%
77 | CC(=O)N1CCn2c(nnc2C2CCCCN2Cc2ccccc2Cl)C1 (configuration not stated) | -3.34%
78 | COCc1ccc(C(=O)N2CCC(c3cc4nccnc4[nH]3)CC2)cc1 | -14.3%
79 | Cc1ccnc(C2CCN(C(=O)CCn3ncc4ccccc43)C2)n1 (configuration not stated) | -8.45%
80 | Cc1cc(C(=O)NCCc2c(C)nn(C)c2C)nc(N2CCCCC2)n1 | 20.6%
81 | CCOC(=O)c1n[nH]cc1-c1cncn1CCn1nc(C)c(Cl)c1C | -5.26%
82 | CNC(=O)c1cn[nH]c1C1CCN(Cc2cn(C)nc2C)C1 (configuration not stated) | -12.4%
83 | CN1CCOC(C)(C(=O)N2CCN(C3CCCC3)CC2)C1 (configuration not stated) | -11.9%
84 | CS(=O)(=O)c1cn[nH]c1C1CCCN(C(=O)Cn2cccn2)C1 (configuration not stated) | -9.34%
85 | CN(C)c1cc(C2CCCN(S(=O)(=O)C3CCCC3)C2)ccn1 (configuration not stated) | -7.46%
86 | O=C(Cn1cc(Cl)cn1)N1CCCC(c2ccn[nH]2)C1 (configuration not stated) | -7.33%
87 | Cn1cncc1CN1CCCC1c1cncc(Oc2ccc(Cl)cc2)n1 (configuration not stated) | 8.74%
88 | Cc1nccn1CCC1CCN(C(C)C)CC1 | -2.75%
89 | O=C(c1cc[nH]n1)N1CCC(c2cc(Nc3ccccn3)n[nH]2)CC1 | -8.04%
90 | CCc1nccn1-c1cccc(C2CCN(C(=O)COC)CC2)n1 | 0.0936%
91 | CNC(=O)C1(C)CCCN(c2cnccn2)C1 (configuration not stated) | -8.04%
92 | CCn1cc(CN2CCN(CC(O)c3ccc(C)cc3C)CC2)cn1 (configuration not stated) | -4.8%
93 | O=C1NC[C@]2(CC[C@@H](C(=O)N3CCCC(O)C3)CC2)Oc2ccccc21 (some centres not stated) | -7.1%
94 | O=C(CCn1c(C(F)(F)F)cc2cccnc21)NC1CCCC1 | -3.77%
95 | O=C(c1nsc(Cl)c1Cl)N1CCc2nc3sccc3c(=O)n2CC1 | -3.17%
96 | Cn1cc(Cl)c(C(=O)N2CCc3nc4sccc4c(=O)n3CC2)n1 | -2.51%

Row | Compound | cytotoxicity at 70.5 h
97 | CCC(CN1CCCC1)NC(=O)Cc1c(C)[nH]c2cc(C)cc(C)c12 (configuration not stated) | -4.71%
98 | CCC(CN1CCOCC1)NC(=O)Cc1c(C)[nH]c2cc(C)cc(C)c12 (configuration not stated) | 0.203%
99 | O=C(Cn1cc(Cl)cn1)N1CCCC(c2cc3ccccc3cn2)C1 (configuration not stated) | 23.4%
100 | COCC(=O)N1CCC(c2cc3ncccc3c(O)n2)CC1 | -7.25%
101 | O=C(NCCO)C1(Cc2ccccc2-c2ccncc2)CCOCC1 | -7.35%
102 | O=C(CCC1CCCC1)N1CCC(c2cc3ncccc3c(O)n2)CC1 | 0.616%
103 | CCc1nnsc1C(=O)NCCCC(CC)(CC)C1OCCO1 | -15.8%
104 | CC(C)(C)CC(=O)N1CCc2sccc2C1 | -7.51%
105 | CC1(C)COCCN1C(=O)CCc1nc(-c2ccc(Cl)cc2)no1 | -20%
106 | NC(=O)C(NC(=O)c1ccc(NC2CC2)nc1)c1ccccc1 (configuration not stated) | -5.49%
107 | Cc1cc(O)nc(C2CCCNC2)n1 (configuration not stated) | -3.99%
108 | COc1ccc(-c2cc(C3CCNCC3)ccn2)cc1 | -4.77%
109 | O=C(C1CCC1)N1C[C@@H](c2ccsc2)[C@@H]2CN(C3CCCCC3)CC[C@@H]21 | 14.8%
110 | CC(=O)N1CCC[C@@H](NCc2cccc(F)c2)[C@@H]1c1ccc(C)s1 | -6.03%
111 | CC(=O)N1CCC[C@@H](NCc2c[nH]c3ccccc23)[C@@H]1c1ccc(C)s1 | -8.53%
112 | CC1Cc2cc(-c3cncn3CC(=O)NC(C)(C)C)ccc2N1C (configuration not stated) | -7.08%
113 | CCOC(=O)c1n[nH]cc1-c1cncn1CCCn1nc(C)cc1C | -5.33%
114 | c1ccc(CCNc2cccc(C3CCCNC3)n2)cc1 (configuration not stated) | 6.58%
115 | O=C(c1ccnnc1)N1CC[C@]2(C[C@H](Oc3ncccc3F)CO2)C1 | -5.53%
116 | COCCN1C[C@@H]2[C@@H](OC)CCN(Cc3cccs3)[C@@H]2C1 | -1.71%
117 | Cn1cc(CN2CCC3(CCCN3Cc3cccnc3)CC2)cn1 | -3.83%
